Test results published in patent US4704403A, “3-(2,2,2-trisubstituted hydrazinium) propionates” (priority 1983, dated 1987).

Tests used:
[1] = test system: arterial pressure; test: Effect on the arterial pressure in narcotized cats; format: in vivo
Description: (§1) The effect of the compounds according to the present invention on the arterial pressure and vegetative responses has been studied in acute experiments on cats with a mass of 2.8-4.0 kg narcotized by α-glucochloralose (90 mg/kg) and urethane (100 mg/kg intraperitoneally).
(§2) The arterial pressure in the common carotid artery, breathing and electrocardiogram of the second standard lead were recorded.
(§3) The effect of the compounds according to the present invention on hemodynamic effects of acetylcholine (0.1 μg/kg) neoepinephrine (0.2 μg/kg), noradrenaline (1 μg/kg) and histamine (1.5 μg/kg) was also studied. In some experiments instead of neoepinephrine and noradrenaline adrenaline was used (1 μg/kg). The peripheral part of the vagus nerve was irritated by supromaximum square pulses of the frequency of 30 Hz and duration of 0.1 ms.

[2] = test system: hemodynamic effects of neoepinephrine; test: Effect on vegetative responses: neoepinephrine; format: in vivo, cats; details: neoepinephrine 0.2 μg/kg
Description: as §1, §2, §3

[3] = Acute toxicity upon intraperitoneal administration to white mice; format: in vivo; details: mouse, in vivo, ip, 14 days observation, average values with confidential limits at P=0.05
Description: (§4) The acute toxicity of the compounds according to the present invention was studied on white mice of both sexes with a mass of 20-25 g. A saturated aqueous solution of the compounds or a suspension in Tween-80 was administered to the animals intraperitoneally. The observation over the animals was carried out for 14 days. The results obtained were processed following the Litchfield-Wilkoxon method. As it follows from the data shown in Table 5 hereinbelow, the studied compounds have a very low acute toxicity, thus providing a large spectrum of the therapeutic effect.

[4] = test system: white mice; test: as above; format: in vivo; details: i.p.
Description: as §4

[5] = test system: hemodynamic effects of acetylcholine; test: Effect on vegetative responses: acetylcholine; format: in vivo, cats; details: dose "-10" [sic] (unit not given); acetylcholine 0.1 μg/kg
Description: as §1, §2, §3

[6] = test system: hemodynamic effects of noradrenaline; test: Effect on vegetative responses: noradrenaline; format: in vivo, cats; details: noradrenaline 1 μg/kg
Description: as §1, §2, §3

[7] = test system: arrhythmia caused by introduction of calcium chloride; test: Antiarrhythmic activity on the model of arrhythmia caused by calcium chloride (antagonism towards calcium); format: in vivo, mice; details: for Dose of calcium chloride causing arrhythmia: control 85.0; for Dose of calcium chloride causing heart arrest: control 100.0
Description: In experiments on white mice with a mass of 18-25 g narcotized with urethane an electrocardiogram was recorded in the second standard lead. A 2% solution of calcium chloride was introduced into the tail vein at a constant rate (0.01 ml for 2 seconds). The dose of calcium chloride causing arrhythmia and the dose causing heart arrest were determined. In experimental groups the test compounds were administered 20-40 minutes prior to the beginning of the experiment intraperitoneally.

[8] = test system: Angiotension; test: Effect on vegetative responses: angiotensin; format: in vivo, cats; details: dose 5 (unit not given)
[9] = test system: hypertensive male rats of the Akamoto-Aoki line; test: Variation of arterial pressure upon intraperitoneal administration to hypertensive rats; format: in vivo
Description: The study of hypotensive properties of the compounds of this invention has been carried out of hypertensive male rats of the Akamoto-Aoki line aged 25-30 weeks. The animals were divided into groups (7-10 rats in each) and for 2 weeks before the beginning of the experiment they were subjected to an every-day training for adaptation to the unit for measurements of the arterial pressure. The systolic and diastolic arterial pressure were measured indirectly on the tail artery. The level of the arterial pressure prior to administration of the test compounds was measured by way of a triple determination thereof--2 days, one day and right before the administration of the preparation. The compounds were administered intraperitoneally in the form of a 2.5% aqueous solution or a 2.5% suspension in Twin-80 in the dose of 50 mg/kg. The measurement of the arterial pressure was effected 30 minutes, 1, 2, 3 and 4 hours and in some cases 24 hours after the administration of the preparation. For a number of compounds featuring a high efficiency, also determined was the dose causing reduction of the arterial pressure by 30% as compared with the starting level (ED30). The statistical processing of the data obtained was carried out using the Student certainty criterion.

[10] = test system: spontaneously hypertensive rats of the Akamoto-Aoki line; test: Systolic arterial pressure of spontaneously hypertensive rats upon a repeated peroral administration; format: in vivo
Description: Thus, after a four-days course of administration (once a day, per os) of the compounds according to the present invention an essential reduction of the arterial pressure in the test animals is observed which is not returned to the initial level even an expiration of four days after discontinuation of the preparation administration, whereas the hypotensive effect of nifedipine is manifested for only 8 hours.

[11] = test system: spontaneously hypertensive rats of the Akamoto-Aoki line; test: Hypotensive activity on spontaneously hypertensive rats at a single peroral administration; format: in vivo; details: for Systolic arterial pressure: ethyl 40 mg/kg (initial 198), allyl 50 mg/kg (initial 184), benzyl 40 mg/kg (initial 196); for Systolic arterial pressure, percent in parentheses (decrease from initial): ethyl 40, allyl 50, benzyl 40 mg/kg
[12] = dose "-10" [sic] (unit not given)
[13] = 30 minutes, 50 mg/kg i.p. (nifedipine 1 mg/kg i.p.)
[14] = 1 hour, 50 mg/kg i.p. (nifedipine 1 mg/kg i.p.)
[15] = 2 hours, 50 mg/kg i.p. (nifedipine 1 mg/kg i.p.)
[16] = 4 hours, 50 mg/kg i.p. (nifedipine 1 mg/kg i.p.)
[17] = after four-days p.o. course, benzyl 40 mg/kg, allyl 50 mg/kg, nifedipine dose not given
[18] = p.o. once a day, benzyl 40 mg/kg, allyl 50 mg/kg, nifedipine dose not given
[19] = p.o., benzyl 40 mg/kg, allyl 50 mg/kg, nifedipine dose not given

**Q.** Which results are given for `CCCCCCCCCCCCCCCC[N+](C)(C)NCCC(=O)[O-]` [3-(2,2-dimethyl-2-hexadecylhydrazinium)propionate]?
**A.** Variation of arterial pressure ([1]; dose 3 (unit not given)): -5%; Variation of arterial pressure [1, 12]: -3%; Hemodynamic effect, Neoepinephrine ([2]; dose 3 (unit not given)): -10%; Hemodynamic effect, Neoepinephrine [2, 12]: -30%; LD50 at 336 h [3]: 1450 mg/kg; Relative toxicity with respect to quinidine (LD50 / LD50 of quinidine) [4]: 9.3; Variation of the effect of acetylcholine [5]: -10%; Hemodynamic effect, Noradrenaline ([6]; dose 3 (unit not given)): -15%; Hemodynamic effect, Noradrenaline [6, 12]: -80%; Dose of calcium chloride causing arrhythmia ([7]; compound dose 5 mg/kg i.p.): 130.5; Dose of calcium chloride causing heart arrest ([7]; compound dose 5 mg/kg i.p.): 140.6; Dose of calcium chloride causing arrhythmia ([7]; compound dose 25 mg/kg i.p.): 102.7; Dose of calcium chloride causing heart arrest ([7]; compound dose 25 mg/kg i.p.): 124.5

**Q.** Which “Hemodynamic effect, Angiotension” value [8] does the source give for `C=CC[N+](C)(C)NCCC(=O)[O-]` [3-(2,2-dimethyl-2-allylhydrazinium)propionate semihydrate] here?
**A.** -70%

**Q.** What about the “Hemodynamic effect, Neoepinephrine” value ([2]; dose 5 (unit not given)) of the same molecule?
**A.** -20%

**Q.** And the LD50 at 336 h [3]?
**A.** 10600 mg/kg

**Q.** And the “Relative toxicity with respect to quinidine (LD50 / LD50 of quinidine)” value [4]?
**A.** 67.9

**Q.** And the “Average variation of the diastolic arterial pressure” value [9, 13]?
**A.** -10 % of the initial

**Q.** What about the “Average variation of the systolic arterial pressure” value [9, 13] of the same molecule?
**A.** -12 % of the initial

**Q.** And the “Average variation of the diastolic arterial pressure” value [9, 14]?
**A.** -23 % of the initial

**Q.** What about the “Average variation of the systolic arterial pressure” value [9, 14] of the same molecule?
**A.** -12 % of the initial

**Q.** What about the “Average variation of the diastolic arterial pressure” value [9, 15] of the same molecule?
**A.** -29 % of the initial

**Q.** What about the “Average variation of the systolic arterial pressure” value [9, 15] of the same molecule?
**A.** -18 % of the initial

**Q.** And the “Average variation of the diastolic arterial pressure” value [9, 16]?
**A.** -31 % of the initial

**Q.** What about the “Average variation of the systolic arterial pressure” value [9, 16] of the same molecule?
**A.** -14 % of the initial

**Q.** What about the “Average variation of the diastolic arterial pressure” value ([9]; 24 hours, 50 mg/kg i.p.) of the same molecule?
**A.** -7 % of the initial

**Q.** What about the “Average variation of the systolic arterial pressure” value ([9]; 24 hours, 50 mg/kg i.p.) of the same molecule?
**A.** -3 % of the initial

**Q.** And the “Systolic arterial pressure, 5th day” value [10, 17]?
**A.** 126 mm Hg

**Q.** And the “Systolic arterial pressure, 8th day” value [10, 17]?
**A.** 168 mm Hg

**Q.** What about the “Systolic arterial pressure, 10th day” value [10, 17] of the same molecule?
**A.** 175 mm Hg

**Q.** And the “Systolic arterial pressure, 2nd day after administration” value ([10]; p.o. once a day, allyl 50 mg/kg, nifedipine dose not given)?
**A.** 132.8 mm Hg

**Q.** What about the “Systolic arterial pressure, 1st day after administration” value ([10]; p.o. once a day, benzyl 40 mg/kg (initial 195.8), allyl 50 mg/kg (initial 176.6), nifedipine dose not given (initial 184.0)) of the same molecule?
**A.** 150.6 mm Hg

**Q.** And the “Systolic arterial pressure, 2nd day before administration” value [10, 18]?
**A.** 166.8 mm Hg

**Q.** What about the “Systolic arterial pressure, 3rd day after administration” value [10, 18] of the same molecule?
**A.** 118 mm Hg

**Q.** What about the “Systolic arterial pressure, 4th day after administration” value [10, 18] of the same molecule?
**A.** 118.6 mm Hg

**Q.** And the “Systolic arterial pressure, 4th day before administration” value [10, 18]?
**A.** 129 mm Hg

**Q.** What about the “Percent in parentheses (change of systolic pressure from initial), 2nd day after administration” value ([10]; p.o., allyl 50 mg/kg, nifedipine dose not given) of the same molecule?
**A.** 25%

**Q.** And the “Percent in parentheses (change of systolic pressure from initial), 1st day after administration” value [10, 19]?
**A.** 15%

**Q.** What about the “Percent in parentheses (change of systolic pressure from initial), 2nd day before administration” value [10, 19] of the same molecule?
**A.** 6%

**Q.** And the “Percent in parentheses (change of systolic pressure from initial), 3rd day after administration” value [10, 19]?
**A.** 33%

**Q.** What about the “Percent in parentheses (change of systolic pressure from initial), 4th day after administration” value [10, 19] of the same molecule?
**A.** 33%

**Q.** And the “Percent in parentheses (change of systolic pressure from initial), 4th day before administration” value [10, 19]?
**A.** 27%

**Q.** And the “Percent in parentheses (change of systolic pressure from initial), 5th day” value [10, 19]?
**A.** 29%

**Q.** And the “Percent in parentheses (change of systolic pressure from initial), 8th day” value [10, 19]?
**A.** 5%

**Q.** And the “Dose of calcium chloride causing arrhythmia” value ([7]; compound dose 5 mg/kg i.p.)?
**A.** 99.6

**Q.** And the “Dose of calcium chloride causing heart arrest” value ([7]; compound dose 5 mg/kg i.p.)?
**A.** 118.0

**Q.** What about the “Dose of calcium chloride causing arrhythmia” value ([7]; compound dose 25 mg/kg i.p.) of the same molecule?
**A.** 95.2

**Q.** What about the “Dose of calcium chloride causing heart arrest” value ([7]; compound dose 25 mg/kg i.p.) of the same molecule?
**A.** 103.0

**Q.** What about the Systolic arterial pressure ([11]; 3 hours after single p.o.) of the same molecule?
**A.** 153 mm Hg

**Q.** And the “Systolic arterial pressure, percent in parentheses (decrease from initial)” value ([11]; 3 hours after single p.o.)?
**A.** 17%

**Q.** And the Systolic arterial pressure ([11]; 5 hours after single p.o.)?
**A.** 155 mm Hg

**Q.** What about the “Systolic arterial pressure, percent in parentheses (decrease from initial)” value ([11]; 5 hours after single p.o.) of the same molecule?
**A.** 16%

**Q.** What about the Systolic arterial pressure ([11]; 24 hours after single p.o.) of the same molecule?
**A.** 170 mm Hg

**Q.** What about the “Systolic arterial pressure, percent in parentheses (decrease from initial)” value ([11]; 24 hours after single p.o.) of the same molecule?
**A.** 8%
